Reference: ChEMBL document CHEMBL1139446, “4,5-Disubstituted-1,3-oxazolidin-2-imine derivatives: a new class of orally bioavailable nitric oxide synthase inhibitor” (Bioorg Med Chem Lett, 2004)

Assays:
[1] = target: T1, Nitric oxide synthase, inducible (Mus musculus, UniProt P29477); experiment: (§1) Inhibition of inducible nitric oxide synthase (iNOS) in mice
T1 sequence (P29477 whole entry): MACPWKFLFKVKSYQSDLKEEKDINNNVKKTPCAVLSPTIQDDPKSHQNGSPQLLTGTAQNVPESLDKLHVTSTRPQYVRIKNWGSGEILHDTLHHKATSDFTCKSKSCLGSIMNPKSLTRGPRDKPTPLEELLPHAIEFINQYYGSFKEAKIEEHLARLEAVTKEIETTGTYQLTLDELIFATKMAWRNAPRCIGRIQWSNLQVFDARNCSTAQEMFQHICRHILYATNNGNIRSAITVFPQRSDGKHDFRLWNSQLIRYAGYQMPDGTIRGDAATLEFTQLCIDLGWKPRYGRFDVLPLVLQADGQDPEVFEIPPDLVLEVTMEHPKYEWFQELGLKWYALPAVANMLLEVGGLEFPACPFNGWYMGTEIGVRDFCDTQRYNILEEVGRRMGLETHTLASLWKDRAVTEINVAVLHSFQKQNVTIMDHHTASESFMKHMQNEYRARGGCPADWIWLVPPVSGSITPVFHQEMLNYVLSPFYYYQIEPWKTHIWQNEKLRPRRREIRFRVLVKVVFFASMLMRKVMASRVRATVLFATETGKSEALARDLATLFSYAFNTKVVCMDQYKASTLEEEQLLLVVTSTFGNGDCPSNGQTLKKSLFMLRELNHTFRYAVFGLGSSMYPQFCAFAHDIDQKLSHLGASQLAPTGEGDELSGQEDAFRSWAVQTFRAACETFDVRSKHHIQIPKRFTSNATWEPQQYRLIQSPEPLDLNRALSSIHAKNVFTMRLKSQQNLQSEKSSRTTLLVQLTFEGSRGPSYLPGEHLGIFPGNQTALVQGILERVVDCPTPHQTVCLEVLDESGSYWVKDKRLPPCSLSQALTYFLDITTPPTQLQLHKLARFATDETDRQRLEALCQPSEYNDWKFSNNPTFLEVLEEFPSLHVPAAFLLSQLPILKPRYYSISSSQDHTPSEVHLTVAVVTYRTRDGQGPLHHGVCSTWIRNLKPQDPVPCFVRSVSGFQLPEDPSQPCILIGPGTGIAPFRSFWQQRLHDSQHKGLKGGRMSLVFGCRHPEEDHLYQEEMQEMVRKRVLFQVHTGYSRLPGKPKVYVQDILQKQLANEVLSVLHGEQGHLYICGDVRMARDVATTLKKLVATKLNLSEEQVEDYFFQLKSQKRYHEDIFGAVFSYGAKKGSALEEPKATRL

Mus musculus = species on record: Mus musculus; experiment: Selectivity ratio of IC50 of nNOS to IC50 of iNOS
Nitric oxide synthase 1 = Nitric oxide synthase 1 (Mus musculus, UniProt Q9Z0J4); experiment: (§2) Inhibition of neuronal nitric oxide synthase (nNOS) in mice
Chain of Nitric oxide synthase 1 (Q9Z0J4 whole entry): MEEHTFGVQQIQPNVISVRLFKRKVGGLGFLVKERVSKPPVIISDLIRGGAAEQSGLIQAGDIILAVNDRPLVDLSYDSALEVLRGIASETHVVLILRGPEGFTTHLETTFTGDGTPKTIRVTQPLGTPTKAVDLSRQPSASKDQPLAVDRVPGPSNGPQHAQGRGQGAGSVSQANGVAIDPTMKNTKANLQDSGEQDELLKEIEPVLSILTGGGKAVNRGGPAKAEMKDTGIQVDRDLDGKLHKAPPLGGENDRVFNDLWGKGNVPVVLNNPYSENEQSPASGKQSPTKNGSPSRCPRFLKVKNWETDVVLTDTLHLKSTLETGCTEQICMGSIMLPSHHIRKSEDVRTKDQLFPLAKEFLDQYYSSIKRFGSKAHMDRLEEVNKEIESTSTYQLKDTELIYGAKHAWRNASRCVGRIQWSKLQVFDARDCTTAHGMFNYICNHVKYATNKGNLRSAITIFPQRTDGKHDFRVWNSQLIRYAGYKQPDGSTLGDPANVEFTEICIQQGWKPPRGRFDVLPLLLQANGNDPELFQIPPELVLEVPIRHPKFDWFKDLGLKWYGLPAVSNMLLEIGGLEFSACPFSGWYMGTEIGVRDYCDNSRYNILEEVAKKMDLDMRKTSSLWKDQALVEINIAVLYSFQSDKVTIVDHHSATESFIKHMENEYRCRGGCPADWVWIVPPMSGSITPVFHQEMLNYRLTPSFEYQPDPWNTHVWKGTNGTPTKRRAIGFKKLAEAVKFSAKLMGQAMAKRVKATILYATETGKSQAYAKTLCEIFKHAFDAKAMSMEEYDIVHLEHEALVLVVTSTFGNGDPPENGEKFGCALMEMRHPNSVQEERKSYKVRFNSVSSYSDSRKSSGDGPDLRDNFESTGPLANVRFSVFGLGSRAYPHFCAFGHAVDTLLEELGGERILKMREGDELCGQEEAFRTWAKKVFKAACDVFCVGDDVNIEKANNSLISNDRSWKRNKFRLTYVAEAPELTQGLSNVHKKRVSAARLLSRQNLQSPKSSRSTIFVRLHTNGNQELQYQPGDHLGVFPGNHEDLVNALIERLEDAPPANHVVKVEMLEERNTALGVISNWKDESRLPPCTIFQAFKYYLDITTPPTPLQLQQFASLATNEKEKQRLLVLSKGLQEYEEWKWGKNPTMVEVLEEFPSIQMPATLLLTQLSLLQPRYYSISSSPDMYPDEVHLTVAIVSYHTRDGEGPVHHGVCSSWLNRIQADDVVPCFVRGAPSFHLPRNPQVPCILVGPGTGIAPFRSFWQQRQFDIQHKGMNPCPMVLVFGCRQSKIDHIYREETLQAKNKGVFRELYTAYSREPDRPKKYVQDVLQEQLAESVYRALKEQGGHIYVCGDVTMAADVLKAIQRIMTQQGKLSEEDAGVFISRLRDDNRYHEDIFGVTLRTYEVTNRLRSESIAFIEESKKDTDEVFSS

[2] = target: Nitric oxide synthase 1 (Mus musculus) (UniProt Q9Z0J4); experiment: as §2; details: concentration not given here
Chain of Nitric oxide synthase 1 (Mus musculus) (Q9Z0J4 whole entry): as above

[3] = target: T2, Nitric oxide synthase, inducible (Mus musculus) (UniProt P29477); experiment: as §1; details: concentration not given here
T2 sequence (whole entry): T1 sequence (P29477 whole entry)

With CC1CN=C(N)O1 (stereo not given) the IC50 [1] was 0.074 µM, the Selectivity (Mus musculus) was 19 and the IC50 (Nitric oxide synthase 1) was 1.4 µM.
Work on NC1=NC(c2ccccc2)CO1 (stereo not given) yielded an inhibition [2] of 18% and an inhibition [3] of 28%.
For NC1=NCC(CBr)O1 (stereo not given), the IC50 [1] was 0.5 µM, the Selectivity (Mus musculus) was 0.8 and the IC50 (Nitric oxide synthase 1) was 0.4 µM.
In the case of N=C(NCCC[C@H](N)C(=O)O)N[N+](=O)[O-] [NITROARGININE], the IC50 [1] is reported as 80 µM, the Selectivity (Mus musculus) is reported as 0.0063 and the IC50 (Nitric oxide synthase 1) is reported as 0.5 µM.
Compound CCC[C@@H]1N=C(N)O[C@@H]1CCC has an IC50 [1] of 6.8 µM, a Selectivity (Mus musculus) of 8.4 and an IC50 (Nitric oxide synthase 1) of 57 µM.
CC[C@@H]1N=C(N)O[C@H]1CC gave an IC50 [1] of 0.056 µM, a Selectivity (Mus musculus) of 45 and an IC50 (Nitric oxide synthase 1) of 2.5 µM.
For C[C@H]1CC(=N)N[C@@H]2[C@H](Cl)[C@@H]21, the IC50 [1] was 0.003 µM and the IC50 (Nitric oxide synthase 1) was 0.015 µM.
For C[C@H]1CC(N)=N[C@@H]2[C@H](Cl)[C@@H]21, the Selectivity (Mus musculus) was 5.
CC[C@@H]1OC(N)=N[C@H]1C was tested, and the IC50 [1] was 0.12 µM, the Selectivity (Mus musculus) was 14 and the IC50 (Nitric oxide synthase 1) was 1.7 µM.
CCCCC[C@@H]1N=C(N)O[C@H]1C was tested, and the IC50 [1] was 0.5 µM, the Selectivity (Mus musculus) was 1.6 and the IC50 (Nitric oxide synthase 1) was 0.79 µM.
Work on CCC1CN=C(N)O1 (stereo not given) yielded an IC50 [1] of 0.28 µM, a Selectivity (Mus musculus) of 6.4 and an IC50 (Nitric oxide synthase 1) of 1.8 µM.
CC1COC(N)=N1 (stereo not given) gave an IC50 [1] of 1.5 µM, a Selectivity (Mus musculus) of 6.5 and an IC50 (Nitric oxide synthase 1) of 9.8 µM.
In the case of CNC(=N)NCCC[C@H](N)C(=O)O [TILARGININE], the IC50 (Nitric oxide synthase 1) is reported as 4.3 µM.
For CC[C@H]1OC(N)=N[C@H]1C, the IC50 [1] was 0.16 µM, the Selectivity (Mus musculus) was 5.3 and the IC50 (Nitric oxide synthase 1) was 0.85 µM.
CCC1COC(N)=N1 (stereo not given) was tested, and the IC50 [1] was 1.6 µM, the Selectivity (Mus musculus) was 1.8 and the IC50 (Nitric oxide synthase 1) was 2.8 µM.
CCCCC[C@@H]1N=C(N)O[C@@H]1C was tested, and the IC50 [1] was 0.23 µM, the Selectivity (Mus musculus) was 16 and the IC50 (Nitric oxide synthase 1) was 3.6 µM.
CC[C@@H]1N=C(N)O[C@@H]1CC was tested, and the IC50 [1] was 0.13 µM and the IC50 (Nitric oxide synthase 1) was 1.2 µM.
Work on C[C@@H]1N=C(N)O[C@@H]1C yielded an IC50 [1] of 0.15 µM, a Selectivity (Mus musculus) of 11 and an IC50 (Nitric oxide synthase 1) of 1.6 µM.
Work on CC[C@@H]1N=C(N)O[C@@H]1C yielded an IC50 [1] of 0.12 µM, a Selectivity (Mus musculus) of 5.7 and an IC50 (Nitric oxide synthase 1) of 0.68 µM.
Compound CC[C@@H]1N=C(N)O[C@H]1C has an IC50 [1] of 0.17 µM, a Selectivity (Mus musculus) of 14 and an IC50 (Nitric oxide synthase 1) of 2.3 µM.
In the case of CCC[C@@H]1N=C(N)O[C@@H]1C, the IC50 [1] is reported as 0.041 µM, the Selectivity (Mus musculus) is reported as 22 and the IC50 (Nitric oxide synthase 1) is reported as 0.92 µM.
Compound CCC[C@@H]1N=C(N)O[C@H]1C has an IC50 [1] of 0.12 µM, a Selectivity (Mus musculus) of 4.8 and an IC50 (Nitric oxide synthase 1) of 0.57 µM.
Work on NC1=NCCO1 yielded an IC50 [1] of 7.9 µM, a Selectivity (Mus musculus) of 4.3 and an IC50 (Nitric oxide synthase 1) of 34 µM.
CCC[C@@H]1N=C(N)O[C@H]1CCC showed an IC50 [1] of 2.5 µM, a Selectivity (Mus musculus) of 29 and an IC50 (Nitric oxide synthase 1) of 73 µM.
